19 compounds from ChEMBL document CHEMBL1201862, “PubChem BioAssay data set” (2004) can be followed below.

Activity calls are given as the source filed them.

Data set [1] deals with Glucose-6-phosphate 1-dehydrogenase (Homo sapiens, UniProt P11413). As to the kind of experiment: human G6PD enzyme inhibitors, dose response, selectivity assay for P. falciparum G6PD inhibitor project, biochemical, fluorescence (AID 504792). It counts as functional.
Data set [2] deals with Genome polyprotein (dengue virus type 2, UniProt P29990). The experiment in a line: Dengue-2 NS5 methyltransferase inhibitors, primary screen, biochemical, confirmation dose response (AID 588689). It is filed as functional.
The target of data set [3] is Cytochrome P450 3A4 (Homo sapiens, UniProt P08684).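 Note: CYP3A4 tested as one member of a cytochrome P450 panel screen.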
Data set [4] deals with Cytochrome P450 2C19 (Homo sapiens, UniProt P33261). As to the kind of experiment: Cytochrome panel assay with activity outcomes. Panel member name: p450-cyp2c19 Compounds with AC50 equal or less than 10 uM are considered active. It is filed as functional. To be noted: read-out: AC50.
The target in data set [5] is Cytochrome P450 2C9 (Homo sapiens, UniProt P11712).
In data set [6] the target is T1, Cytochrome P450 1A2 (Homo sapiens, UniProt P05177).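 Note: PubChem cytochrome P450 panel assay, CYP1A2 panel member.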
T1 sequence (P05177 whole entry): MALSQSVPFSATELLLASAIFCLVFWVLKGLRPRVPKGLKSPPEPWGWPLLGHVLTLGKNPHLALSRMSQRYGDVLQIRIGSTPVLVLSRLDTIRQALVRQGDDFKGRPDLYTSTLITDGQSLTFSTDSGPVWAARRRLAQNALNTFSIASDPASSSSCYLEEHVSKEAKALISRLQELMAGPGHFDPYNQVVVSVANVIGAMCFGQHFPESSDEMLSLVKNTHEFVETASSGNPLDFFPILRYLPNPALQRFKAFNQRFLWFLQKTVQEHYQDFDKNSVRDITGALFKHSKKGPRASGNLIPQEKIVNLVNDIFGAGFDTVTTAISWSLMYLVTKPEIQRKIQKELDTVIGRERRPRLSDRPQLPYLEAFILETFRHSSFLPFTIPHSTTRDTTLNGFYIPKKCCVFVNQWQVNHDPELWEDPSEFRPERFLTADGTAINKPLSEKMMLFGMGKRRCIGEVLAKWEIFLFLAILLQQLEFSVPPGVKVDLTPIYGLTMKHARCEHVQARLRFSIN

The target in data set [7] is Albumin (Bos taurus, UniProt P02769). The experiment in a line: Counterscreen for inhibitors of T-cell receptor (TCR)-CD3 interaction: Fluorescence-based biochemical high throughput dose response assay to identify inhibitors of T-cell receptor (TCR)-CD3 interaction using a TAMRA-labeled BSA probe. It is filed as functional. In general terms: The purpose of a counterscreen is to sort out artefacts and off-target activity.

A short description of data set [8]: HepG2 cell cytotoxicity, dose response, cytotoxicity control, plate reader, cherry-pick, antagonist series (AID 743416). It counts as functional, cell-based.
Data set [9] is described as follows: A549 cell cytotoxicity, dose response, cytotoxicity control, plate reader, cherry-pick, antagonist series (AID 743412). It counts as functional, cell-based.
Data set [10] can be described thus: MC4R antagonists, dose response, counter-screen for LGR2 antagonist project, cell-based, plate reader, cherry pick (AID 743444).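 Note: transfected HEK 293 cells stimulated with alpha-MSH peptide; potency of inhibitors of the alpha-MSH evoked signal.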 It is filed as functional.
Data set [11] in a line: LGR2 antagonists, dose response, cell-based, HEK293, CRE-luciferase reporter, cherry pick, set 2 (AID 743343).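 Note: transfected cells were stimulated with diluted bursicon conditioned medium after compound addition.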 It is filed as functional. In general terms: Reporter assays use an easily measured gene product as a stand-in for the process of interest.
Data set [12] deals with Vero. As to the kind of experiment: cells. It is filed as functional. The following applies: Chlorocebus sabaeus.
In data set [13] the target is Cytochrome P450 2D6 (Homo sapiens, UniProt P10635).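 Note: CYP2D6 member of a cytochrome P450 panel assay.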
The target of data set [14] is Luciferin 4-monooxygenase (Photinus pyralis, UniProt P08659). As to the kind of experiment: firefly luciferase enzyme inhibitors, dose response, biochemical, luminescence (AID 1891).
Data set [15] addresses Dual specificity tyrosine-phosphorylation-regulated kinase 1A (Rattus norvegicus, UniProt Q63470). It counts as biochemical, Homo sapiens.
A short description of data set [16]: Luminescence Cell-Based Dose Confirmation HTS to Identify Inhibitors of Platelet Dense Granule Release. [Related pubchem assays: 1663 (Primary HTS), 1678 (Summary of Project)]. It counts as functional.
The target in data set [17] is FAD-linked sulfhydryl oxidase ALR (Homo sapiens, UniProt P55789). As to the kind of experiment: inhibitors of human ALR sulfhydryl oxidase, dose response, biochemical, H2O2 detection, luminescence, cherry-pick (AID 493248).
Data set [18] has as its target Fatty acid synthase (Homo sapiens, UniProt P49327). As to the kind of experiment: FAS thioesterase domain inhibitors, dose response, biochemical, kinetic fluorescence intensity (AID 624326).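 Note: rate of fluorescence rise from hydrolysis of a fluorogenic O-methyl fluorescein ester substrate.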 It counts as functional.
Data set [19] can be described thus: microbe, parasite or virus in culture. It is filed as functional. To be noted: Mycobacterium tuberculosis.
The target in data set [20] is T2, Streptokinase A (Streptococcus pyogenes serotype M1, UniProt P10520).
T2 sequence (P10520 whole entry): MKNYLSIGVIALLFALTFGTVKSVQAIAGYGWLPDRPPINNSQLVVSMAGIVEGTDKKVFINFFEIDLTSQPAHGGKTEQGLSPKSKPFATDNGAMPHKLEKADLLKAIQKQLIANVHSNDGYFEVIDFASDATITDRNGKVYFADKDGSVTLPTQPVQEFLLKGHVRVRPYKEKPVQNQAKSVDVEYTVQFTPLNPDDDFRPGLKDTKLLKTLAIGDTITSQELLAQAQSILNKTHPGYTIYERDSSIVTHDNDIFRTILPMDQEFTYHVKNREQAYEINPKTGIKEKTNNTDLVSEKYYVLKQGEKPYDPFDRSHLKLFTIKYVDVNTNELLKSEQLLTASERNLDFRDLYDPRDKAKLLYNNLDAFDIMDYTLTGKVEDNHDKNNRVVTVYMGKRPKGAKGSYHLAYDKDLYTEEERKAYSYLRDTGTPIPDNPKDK
The experiment in a line: S. pyogenes streptokinase expression inhibitors, potency, dose response, plasminogen activation absorbance, OD405 (AID 1914).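 Note: secreted streptokinase activity via plasminogen activation per viability signal from cell pellet.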 It counts as functional, Streptococcus pyogenes M1 GAS.

Data set [21] deals with Streptococcus. The experiment in a line: Group A Streptococcus viability loss, dose response, counter-screen for streptokinase expression inhibitor project, luminescence, BacTiterGlo (AID 1915).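 Note: potency for reduction of bacterial viability or growth.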 It counts as functional, organism-based.
The subject of data set [22] is Streptococcus sp. 'group A'. As to the kind of experiment: growth inhibition of control SK(-) GAS strain, dose response, counter-screen for streptokinase expression inhibitor project, luminescence, kanamycin, BacTiterGlo, confirmation (AID 1900). It is filed as functional, organism-based.
Data set [23] deals with T3, Mannose-6-phosphate isomerase (Homo sapiens, UniProt P34949).
T3 sequence (P34949 whole entry): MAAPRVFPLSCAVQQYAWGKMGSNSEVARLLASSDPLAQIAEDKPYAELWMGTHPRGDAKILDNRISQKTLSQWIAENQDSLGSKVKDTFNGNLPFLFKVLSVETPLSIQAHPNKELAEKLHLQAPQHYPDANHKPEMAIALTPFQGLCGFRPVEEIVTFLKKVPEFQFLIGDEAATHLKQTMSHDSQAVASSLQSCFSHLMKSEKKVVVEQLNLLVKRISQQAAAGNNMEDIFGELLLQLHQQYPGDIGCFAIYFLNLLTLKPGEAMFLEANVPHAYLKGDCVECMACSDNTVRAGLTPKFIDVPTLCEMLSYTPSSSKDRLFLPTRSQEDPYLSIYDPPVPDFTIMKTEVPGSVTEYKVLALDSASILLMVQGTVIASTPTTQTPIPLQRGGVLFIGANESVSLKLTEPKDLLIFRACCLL
The experiment in a line: human PMI inhibitors, high substrate, primary screen, biochemical, fluorescence intensity, high mannose 6-phosphate (AID 1220).

Data set [24] is described as follows: Luminescence Cell-Based Dose Confirmation HTS to Identify Activators of 5'UTR Stem-Loop Driven Alpha-Synuclein mRNA Translation in H4 Neuroglioblastoma Cells. [Related pubchem assays: 1829 (Project Summary), 1814 (Primary HTS)]. It counts as functional.
Data set [25] is described as follows: Luminescence Cell-Based Dose Response HTS to Identify Activators of Luciferase Translation or Activity in H4 […] Cells. [Related pubchem assays: 1829 (Project Summary), 1814 (Primary HTS)]. It is filed as functional.
For data set [26], the system named is H4. As to the kind of experiment: Luminescence Cell-Based Dose Response HTS to Identify Activators of 5'UTR Stem-Loop Driven Prion Protein mRNA Translation in H4 Neuroglioblastoma Cells. [Related pubchem assays: 1829 (Project Summary), 1814 (Primary HTS)]. It counts as functional. The following applies: Homo sapiens.
Data set [27] deals with Disintegrin and metalloproteinase domain-containing protein 17 (Homo sapiens, UniProt P78536). As to the kind of experiment: exosite inhibitors of ADAM17, dose response, biochemical (AID 743260).

As a reminder, the IC50 is the point on the concentration scale where inhibition reaches its midpoint. For orientation: AC50 means the concentration at which the activity in the assay is half-maximal. A word on the EC50: it is the concentration giving half of the maximal effect.

Sequence of Albumin (P02769 whole entry): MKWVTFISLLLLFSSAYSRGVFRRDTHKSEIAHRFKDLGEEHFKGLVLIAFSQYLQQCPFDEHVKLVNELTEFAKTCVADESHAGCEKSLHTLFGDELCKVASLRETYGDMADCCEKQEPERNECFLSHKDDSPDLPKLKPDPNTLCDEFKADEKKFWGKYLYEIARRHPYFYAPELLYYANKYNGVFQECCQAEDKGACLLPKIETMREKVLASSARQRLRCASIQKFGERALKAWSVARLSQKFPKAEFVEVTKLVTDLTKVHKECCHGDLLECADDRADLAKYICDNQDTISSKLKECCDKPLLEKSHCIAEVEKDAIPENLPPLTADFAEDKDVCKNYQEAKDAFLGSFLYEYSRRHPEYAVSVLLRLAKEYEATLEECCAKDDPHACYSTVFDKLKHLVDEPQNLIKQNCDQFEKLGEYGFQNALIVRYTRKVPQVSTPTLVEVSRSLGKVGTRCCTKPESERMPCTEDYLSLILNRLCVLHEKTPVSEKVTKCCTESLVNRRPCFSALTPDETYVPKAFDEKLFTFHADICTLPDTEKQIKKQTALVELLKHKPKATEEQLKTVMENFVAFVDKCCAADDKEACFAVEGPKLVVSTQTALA
Sequence of Glucose-6-phosphate 1-dehydrogenase (P11413 whole entry): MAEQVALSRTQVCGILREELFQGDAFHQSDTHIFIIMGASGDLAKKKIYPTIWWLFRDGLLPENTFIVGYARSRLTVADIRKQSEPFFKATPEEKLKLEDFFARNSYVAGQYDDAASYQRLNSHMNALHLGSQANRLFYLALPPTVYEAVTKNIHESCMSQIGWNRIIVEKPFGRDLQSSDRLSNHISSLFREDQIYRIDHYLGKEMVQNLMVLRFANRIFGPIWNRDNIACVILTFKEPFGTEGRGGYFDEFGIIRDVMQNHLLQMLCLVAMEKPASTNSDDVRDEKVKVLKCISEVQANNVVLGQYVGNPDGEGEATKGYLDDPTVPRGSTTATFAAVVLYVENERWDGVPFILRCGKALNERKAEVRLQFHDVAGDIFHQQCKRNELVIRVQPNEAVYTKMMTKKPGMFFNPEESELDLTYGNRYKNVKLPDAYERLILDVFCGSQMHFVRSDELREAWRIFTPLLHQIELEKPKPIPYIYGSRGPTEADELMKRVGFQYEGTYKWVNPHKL
Sequence of Cytochrome P450 2C9 (P11712 whole entry): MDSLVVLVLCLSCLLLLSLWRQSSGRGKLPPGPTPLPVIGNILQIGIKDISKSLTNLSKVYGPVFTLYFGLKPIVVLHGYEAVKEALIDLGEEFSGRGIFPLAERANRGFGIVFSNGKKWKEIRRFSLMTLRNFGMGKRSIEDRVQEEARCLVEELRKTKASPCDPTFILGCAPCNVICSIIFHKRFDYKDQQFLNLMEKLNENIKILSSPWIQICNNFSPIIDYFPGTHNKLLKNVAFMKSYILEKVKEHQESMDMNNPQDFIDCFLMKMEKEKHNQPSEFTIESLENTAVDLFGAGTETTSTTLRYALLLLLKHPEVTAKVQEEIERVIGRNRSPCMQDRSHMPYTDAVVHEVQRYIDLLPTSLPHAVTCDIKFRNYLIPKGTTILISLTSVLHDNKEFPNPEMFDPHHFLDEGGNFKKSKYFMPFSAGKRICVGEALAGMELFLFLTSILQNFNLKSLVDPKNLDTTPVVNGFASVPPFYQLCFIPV
Sequence of Cytochrome P450 3A4 (P08684 whole entry): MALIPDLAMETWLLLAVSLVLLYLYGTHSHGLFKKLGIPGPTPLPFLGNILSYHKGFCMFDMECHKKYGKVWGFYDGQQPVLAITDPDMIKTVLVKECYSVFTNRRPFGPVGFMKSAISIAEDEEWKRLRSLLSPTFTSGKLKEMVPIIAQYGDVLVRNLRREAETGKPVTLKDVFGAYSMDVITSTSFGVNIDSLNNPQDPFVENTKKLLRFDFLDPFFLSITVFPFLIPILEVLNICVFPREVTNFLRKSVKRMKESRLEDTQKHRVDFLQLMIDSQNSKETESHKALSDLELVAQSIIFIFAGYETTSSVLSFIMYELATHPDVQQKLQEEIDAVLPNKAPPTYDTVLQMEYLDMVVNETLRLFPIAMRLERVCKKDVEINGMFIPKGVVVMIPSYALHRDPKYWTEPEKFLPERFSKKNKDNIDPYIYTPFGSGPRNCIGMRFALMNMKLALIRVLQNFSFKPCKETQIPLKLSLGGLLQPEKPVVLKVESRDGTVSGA
Sequence of Cytochrome P450 2C19 (P33261 whole entry): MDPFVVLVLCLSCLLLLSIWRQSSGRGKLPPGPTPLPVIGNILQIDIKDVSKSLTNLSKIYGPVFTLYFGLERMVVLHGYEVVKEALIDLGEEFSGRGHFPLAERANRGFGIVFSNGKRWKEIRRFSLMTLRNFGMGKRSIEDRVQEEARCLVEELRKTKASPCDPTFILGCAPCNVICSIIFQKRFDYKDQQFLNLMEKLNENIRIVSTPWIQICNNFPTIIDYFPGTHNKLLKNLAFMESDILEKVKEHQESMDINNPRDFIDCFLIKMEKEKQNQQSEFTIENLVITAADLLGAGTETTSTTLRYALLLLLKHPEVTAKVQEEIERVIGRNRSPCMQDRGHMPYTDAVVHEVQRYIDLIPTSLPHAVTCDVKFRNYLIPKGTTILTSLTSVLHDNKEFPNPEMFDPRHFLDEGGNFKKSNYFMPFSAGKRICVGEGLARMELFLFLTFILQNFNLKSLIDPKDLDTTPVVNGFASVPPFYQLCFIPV
Sequence of Genome polyprotein (P29990 2492-3391 limits assumed): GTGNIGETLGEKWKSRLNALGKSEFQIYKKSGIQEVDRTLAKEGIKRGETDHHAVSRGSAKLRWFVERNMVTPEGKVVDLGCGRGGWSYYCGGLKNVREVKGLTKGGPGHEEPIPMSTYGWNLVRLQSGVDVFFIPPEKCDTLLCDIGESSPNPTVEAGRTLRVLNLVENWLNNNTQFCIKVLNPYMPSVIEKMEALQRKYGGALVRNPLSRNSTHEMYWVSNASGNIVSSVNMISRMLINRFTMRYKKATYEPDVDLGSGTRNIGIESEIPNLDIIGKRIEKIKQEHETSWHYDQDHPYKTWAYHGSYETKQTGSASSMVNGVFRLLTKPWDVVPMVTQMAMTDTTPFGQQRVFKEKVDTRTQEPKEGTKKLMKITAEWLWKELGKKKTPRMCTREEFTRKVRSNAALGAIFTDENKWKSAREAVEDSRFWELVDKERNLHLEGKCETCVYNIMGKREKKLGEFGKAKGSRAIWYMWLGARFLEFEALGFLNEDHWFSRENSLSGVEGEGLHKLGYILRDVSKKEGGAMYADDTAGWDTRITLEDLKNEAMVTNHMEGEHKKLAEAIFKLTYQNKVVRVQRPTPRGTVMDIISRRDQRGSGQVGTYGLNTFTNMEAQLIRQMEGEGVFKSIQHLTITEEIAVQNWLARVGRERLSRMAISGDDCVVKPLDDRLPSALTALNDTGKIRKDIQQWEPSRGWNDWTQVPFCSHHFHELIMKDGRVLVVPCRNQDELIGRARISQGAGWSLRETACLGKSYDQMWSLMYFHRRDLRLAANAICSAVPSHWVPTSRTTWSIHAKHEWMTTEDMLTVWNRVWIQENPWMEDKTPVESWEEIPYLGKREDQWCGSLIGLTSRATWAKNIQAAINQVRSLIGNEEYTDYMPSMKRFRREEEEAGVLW
Sequence of Luciferin 4-monooxygenase (P08659 whole entry): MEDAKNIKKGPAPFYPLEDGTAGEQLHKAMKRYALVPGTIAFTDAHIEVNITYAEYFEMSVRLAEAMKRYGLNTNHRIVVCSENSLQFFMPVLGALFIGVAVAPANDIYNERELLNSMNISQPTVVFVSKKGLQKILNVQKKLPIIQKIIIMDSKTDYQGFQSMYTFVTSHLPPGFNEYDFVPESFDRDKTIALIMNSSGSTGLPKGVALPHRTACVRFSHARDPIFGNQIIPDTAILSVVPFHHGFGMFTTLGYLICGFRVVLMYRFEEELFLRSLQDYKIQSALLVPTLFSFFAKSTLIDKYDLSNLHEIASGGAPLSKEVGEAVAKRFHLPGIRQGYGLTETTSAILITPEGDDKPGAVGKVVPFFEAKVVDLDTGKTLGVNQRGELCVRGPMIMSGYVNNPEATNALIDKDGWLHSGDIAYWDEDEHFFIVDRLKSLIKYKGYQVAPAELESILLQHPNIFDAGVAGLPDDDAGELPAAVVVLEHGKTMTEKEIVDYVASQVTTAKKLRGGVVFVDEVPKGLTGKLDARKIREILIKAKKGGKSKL
Sequence of Disintegrin and metalloproteinase domain-containing protein 17 (P78536 whole entry, the tested form may be a part): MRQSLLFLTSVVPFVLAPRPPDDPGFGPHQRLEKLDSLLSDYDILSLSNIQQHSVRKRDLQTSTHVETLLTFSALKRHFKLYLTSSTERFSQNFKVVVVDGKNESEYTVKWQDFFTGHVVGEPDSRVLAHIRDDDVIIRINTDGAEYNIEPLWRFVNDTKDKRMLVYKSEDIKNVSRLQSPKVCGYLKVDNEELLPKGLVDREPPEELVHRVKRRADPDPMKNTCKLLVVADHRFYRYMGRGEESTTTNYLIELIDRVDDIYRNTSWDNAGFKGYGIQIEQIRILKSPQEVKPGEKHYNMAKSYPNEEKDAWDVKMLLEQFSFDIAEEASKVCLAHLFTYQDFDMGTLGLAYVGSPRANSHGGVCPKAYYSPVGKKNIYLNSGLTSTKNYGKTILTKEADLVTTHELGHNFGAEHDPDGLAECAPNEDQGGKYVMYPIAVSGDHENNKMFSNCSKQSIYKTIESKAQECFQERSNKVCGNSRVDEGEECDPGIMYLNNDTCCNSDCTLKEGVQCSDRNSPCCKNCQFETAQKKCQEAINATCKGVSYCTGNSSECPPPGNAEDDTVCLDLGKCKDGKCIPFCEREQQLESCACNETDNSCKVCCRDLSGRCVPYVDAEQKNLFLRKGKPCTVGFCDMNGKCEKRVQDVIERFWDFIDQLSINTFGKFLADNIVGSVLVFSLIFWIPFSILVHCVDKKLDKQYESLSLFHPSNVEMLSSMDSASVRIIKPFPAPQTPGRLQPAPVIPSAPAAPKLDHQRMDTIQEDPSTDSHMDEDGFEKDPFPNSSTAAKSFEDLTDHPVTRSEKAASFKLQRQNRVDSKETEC

Turning to `CN1CC[C@@]2(C)c3cc(O)ccc3N(C)[C@@H]12`, the IC50 was 42.6 µM (inactive) in data set [1] and 22.4 µM (active) in [2].

As to `O=C(c1cnccn1)N1CCC2(CC1)CCN(c1ccccc1)CC2`, in data set [3], the AC50 result is on record as “inconclusive”.

Regarding `CCCCCCCCCCC/C=C\C(C)(C)/C=C\CCCC(=O)O`, the concentration at half-maximal activity (AC50) entry in [3] is “inconclusive”; in data set [4] it was 25.1 µM (inconclusive); in data set [5] it was 15.8 µM (inconclusive).

In the case of `CN1CCN(c2ncc3nc(-c4ccc(F)cc4)c(=O)n(Cc4cccs4)c3n2)CC1`, the AC50 entry in data set [3] is “inconclusive”; in data set [4] it was 31.6 µM (inconclusive); in [5], 0.0126 µM (inconclusive); in data set [6], 25.1 µM (inconclusive).

As for `O=C(CCl)NNC(=O)c1c(O)c2ccccc2[nH]c1=O`, the IC50 in data set [7] is > 94 µM (inactive).

With `COc1ccc2nc(NC(=O)c3ccccc3F)sc2c1`, the AC50 in data set [8] was > 52 µM (inactive); in [9], > 52 µM (inactive); in [10] it was 27.2 µM (active); in data set [11] it was 19.9 µM (active).

Consider `CC1(OC(=O)C2CCCC2)C(=O)C=C2C=C(c3ccsc3)N(CCc3c[nH]c4ccccc34)C=C2C1=O` (stereo not drawn), for which, in data set [1], the IC50 was 49.6 µM (inactive).

For `Cc1noc(C)c1COc1ccc(C(=O)NNC(=O)c2ccccc2O)cc1`, the IC50 in [7] was > 94.1 µM (inactive).

Consider `O=C1N(c2ccccc2C(F)(F)F)O[C@@]1(c1ccccc1)C1CCCCC1`, for which the CC50 in [12] was > 25 µM (active).

Consider `NNC(=O)CN1C(c2ccccc2Br)=Nc2ccc(Br)cc2C1c1ccccc1` (stereo not drawn), for which the IC50 in data set [1] is 15.3 µM (active).

For `CCCCn1c(SCC(=O)NC(C)(C)C)nnc1-c1ccco1`, the AC50 result in data set [3] is “inconclusive”; in data set [5], 0.0398 µM (inconclusive); in [6] it was 0.316 µM (inconclusive); in data set [13] it was 12.6 µM (inconclusive).

For the compound `O=C(c1ccccc1)c1ccc2cc(O)ccc2c1`, the EC50 in data set [14] is 0.752 µM (active); in data set [16], 7.74 µM (active). Further, in data set [15], the AC50 is 9.25 µM (active).

Consider `O=S(=O)(c1ccc(-c2csc(-c3cccnc3)n2)cc1)N1CCCC1`, for which the AC50 in data set [17] was 0.268 µM (active). Moreover, the IC50 in data set [18] was 1.62 µM (active).

As for `COc1cccc(NC(=O)Nc2nc(SC(C)(C)C)ns2)c1`, the CC50 in data set [12] was 7.41 µM (active); in data set [19], 7.82 µM (active). The EC50 was 9.69 µM (active) in data set [20], > 50 µM (not active) in [21] and 9.49 µM (active) in data set [22].

`CCN(CC)c1ccc(NC(=O)c2ccccc2Br)cc1S(=O)(=O)Nc1ccccc1OC`: the IC50 was 43.7 µM (active) in data set [23] and > 80 µM (inactive) in data set [1].

Consider `Fc1cccc(/C=N/Nc2[nH]cnc3ncnc2-3)c1`, for which the AC50 in data set [15] was 10.1 µM (active). For the same compound, the EC50 in data set [24] is > 120 µM (not active); in data set [25], 40.8 µM (active); in [26], > 120 µM (not active).

Regarding `C/C(=N\N=C(/N)SC1CC(=O)N(c2ccc(Br)cc2)C1=O)c1cccs1` (stereo not drawn), the IC50 in data set [27] was > 69.5 µM (inactive). In addition, the EC50 in data set [20] is 9.08 µM (active); in data set [21], 19.1 µM (active); in [22] it was 6.72 µM (active).

For the compound `COc1ccc(CC(=O)N/N=C/c2cc([N+](=O)[O-])cc(Br)c2O)cc1`, in data set [7], the IC50 was > 94.1 µM (inactive). Moreover, the 50% effective concentration (EC50) is > 150 µM (not active) in data set [20], 6.89 µM (active) in data set [21] and 3.53 µM (active) in data set [22].

As for `Cc1no[n+]([O-])c1COc1cccc(/C=N/Nc2nncn2N)c1`, the IC50 in [1] is 58.7 µM (inactive).
